# Reference: patent publication US9334523B2, “Substrates and methods for staining live stem cells” (LIFE TECHNOLOGIES CORPORATION, priority 2011, dated 2016)
# “Also recorded” adds a separate entry of the source. Where two headings read alike, the source gives them in different places.
# Assays:
# [1] = tested on: MEF (mouse embryonic fibroblast) feeder cells; test: Background staining in negative control cells (MEFs, fibroblasts); format: cell-based
# Protocol: (§1) Here, two test alkaline phosphate substrates, Fluorescein diphosphate-AM ester (FDP-AM) and DDAOP-AM ester were tested for live staining on pluripotent stem cells like H9 ESCs cultured on MEF (mouse embryonic fibroblast) feeder cells. H9 ESCs and other stem cells expressed high alkaline phosphatase. Negative control cells were MEFs and human dermal fibroblasts which express far lower levels of alkaline phosphatase.
# (§2) A 10 mM substrate master stock solution (1000×) of fluorescein diphosphate-AM ester (FDP-AM) or DDAOP-AM was prepared (for FDP-AM for e.g., by adding 512.5 μL of tissue culture grade DMSO to 4 mg of the compound (MW: 780.52)).
# (§3) Then, 100 μL of 10 mM FDP-AM or DDAOP-AM solution was diluted into 900 μL of DMEM to make 1 mM working stock; or 10 μM working stock was prepared by diluting 10 μl to 10 ml with 100 mM Tris-HCl pH 8.2 or DMEM basal media; or 1 μM working stock was prepared by diluting 10 μL of 1 mM working stock in 10 ml of DMEM, which was used.
# (§4) The AP (alkaline phosphatase) live compound with concentrations ranging: >1 μM, 5 μM, 10 μM, 50 μM, 100 μM, and 200 μM, was made by adding 1, 5, 10, 50, 100 and 200 μL of 1 mM FDP-AM or DDAOP-AM working stock. Similarly, the AP live compounds with concentrations ranging: >20 nM, 50 nM, 100 nM, 250 nM, 500 nM, and 800 nM, was made by adding 2, 5, […], 25, 50 and 80 μL of 1 μM FDP-AM working stock. The first dilution was added to an empty plate (no seeded cells) containing DMEM. The final concentration of the substrates, on the cells, were as follows: 50-200 nM for FDP-AM, and 50-200 μM for DDAOP-AM.
# (§5) Incubation times were then determined, beginning with 90 seconds. Where no FITC expression was detected, expression was continued for up to 30 minutes. Levamisole was added to the wash buffer to quench the reaction. This step is whoever optional and not necessary. The samples were rinsed with DMEM and visualized.
# H9 ESCs = test: Live staining of H9 ESCs cultured on MEF feeders with alkaline phosphatase substrates; format: cell-based, human; details: for concentration range of fluorescence: FIG. 1; for concentration at which robust staining of ESC colonies was achieved: FIG. 2
# Protocol: as §1, §2, §3, §4, §5
# mouse ESCs = test: Live staining of mouse ESCs on MEF feeders; format: cell-based; details: 200 nM, 30 min
# Text: Alkaline phosphatase is not specific just for human ESCs but also for murine ESCs. […] The fluorescent signal is robust and visible at lower 5× magnification [FIG. 7].
# [2] = tested on: differentiating osteoblasts versus AdSCs; test: Staining of adipose derived mesenchymal stem cells and derived osteoblasts; format: cell-based; details: FIG. 8
# Text: Alkaline phosphatase is also expressed at high levels in differentiating osteoblasts and mature osteocytes.
Compound,background staining in negative control MEFs [1],staining of ESC colonies (H9 ESCs),time for substrate to diffuse out of the ESC (H9 ESCs),viability of cells after the substrate diffuses out (H9 ESCs),"proliferation of stained cells after removal of the substrate (H9 ESCs; 100-200 nM, 30 minutes)",concentration range of fluorescence (H9 ESCs),concentration at which robust staining of ESC colonies was achieved (H9 ESCs),cell-specific marker expression of stained cells (H9 ESCs; after staining and removal of the substrate),"re-staining with a second exposure the following day (H9 ESCs; after washing, culturing overnight, 30 min exposure)",removal of fluorescent stain from stained cells (H9 ESCs; media with substrate replaced with fresh ESC culture media),background in MEF feeder cells of mESC culture (mouse ESCs),staining of mESC colonies (mouse ESCs),specificity of staining of osteoblasts versus parent AdSC/MSC [2],effect on viability or morphology of stained cells (H9 ESCs),background staining in negative control MEFs ([1]; listed as DDAO-AM),morphology of stained ESCs (H9 ESCs)
"CC(=O)OCOP(=O)(OCOC(C)=O)Oc1ccc2c(c1)Oc1cc(OP(=O)(OCOC(C)=O)OCOC(C)=O)ccc1C21OC(=O)c2ccccc21 [FDP-AM, Fluorescein diphosphate-AM ester]",minimal background,successful staining; also recorded: robust staining,within two hours,viable overnight,continue to proliferate even after removal of the substrate,nanomolecular range,0.2 µM,retain their cell-specific marker expression; also recorded: retained their marker expression,successfully re-stained,completely removed,minimal background staining; also recorded: little or no background,specially stains mESC; also recorded: robust staining,specific staining of differentiating osteoblasts with minimal background in its parental undifferentiated MSC; also recorded: specific staining for the differentiated phenotype (osteoblast) but not in AdSCs,–,–,–
O=C1OC2(c3ccc(O)cc3Oc3cc(O)ccc32)c2ccccc21 [fluorescein],–,–,–,–,–,–,–,–,–,–,–,–,–,does not affect the viability or morphology,–,–
"CC(=O)OCOP(=O)(OCOC(C)=O)Oc1ccc2c(c1)C(C)(C)C1=C(Cl)C(=O)C(Cl)=CC1=N2 [DDAOP-AM, DDAO phosphate-AM ester]",high background expression,–,–,–,–,micomolar range,200 µM,–,–,–,–,–,failed to show specific staining; also recorded: does not show specific staining,–,higher background in negative control cells,altered morphology
